The experiment concerns the target T1, GABAA receptor β2 subunit (α1β2γ2 GABAA receptor) (Rattus norvegicus, UniProt P63138).
T1 construct: gene Gabrb2; recombinant α1β2γ2 receptor expressed in Xenopus oocytes; also concatenated α1-β2-α1/γ2-β2; with GABAA receptor α1 and γ2 subunits
The experiment can be described thus: two-electrode voltage clamp in Xenopus oocytes, potentiation of GABA currents; beta1/beta2 concatemers and point mutants. The class given is cell-based.

T1 sequence (P63138 26-474): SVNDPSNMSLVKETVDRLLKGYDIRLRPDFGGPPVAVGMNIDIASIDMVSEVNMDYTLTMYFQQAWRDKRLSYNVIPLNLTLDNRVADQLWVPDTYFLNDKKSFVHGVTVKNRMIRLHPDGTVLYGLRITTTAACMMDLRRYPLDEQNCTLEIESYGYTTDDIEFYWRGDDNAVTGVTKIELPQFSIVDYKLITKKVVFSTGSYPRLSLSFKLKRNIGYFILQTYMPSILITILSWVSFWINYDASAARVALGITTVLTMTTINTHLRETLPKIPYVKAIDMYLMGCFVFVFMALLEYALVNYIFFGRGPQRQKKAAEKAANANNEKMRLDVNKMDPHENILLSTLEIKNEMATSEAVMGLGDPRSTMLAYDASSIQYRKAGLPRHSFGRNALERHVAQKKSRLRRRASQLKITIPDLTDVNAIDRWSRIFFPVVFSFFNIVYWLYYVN
T1 sequence (P62813 28-455 partner): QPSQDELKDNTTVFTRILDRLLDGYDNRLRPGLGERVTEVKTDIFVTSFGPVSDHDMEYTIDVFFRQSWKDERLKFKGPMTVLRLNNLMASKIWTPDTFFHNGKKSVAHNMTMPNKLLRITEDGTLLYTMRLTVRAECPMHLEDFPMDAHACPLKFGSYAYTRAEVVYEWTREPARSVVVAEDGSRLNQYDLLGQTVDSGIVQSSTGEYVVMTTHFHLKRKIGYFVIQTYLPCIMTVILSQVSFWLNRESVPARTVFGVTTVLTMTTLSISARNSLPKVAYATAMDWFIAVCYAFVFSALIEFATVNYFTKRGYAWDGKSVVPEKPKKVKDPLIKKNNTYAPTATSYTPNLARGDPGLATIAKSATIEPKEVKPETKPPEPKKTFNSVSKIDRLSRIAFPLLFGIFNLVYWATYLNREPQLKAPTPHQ
T1 sequence (P18508 39-466 partner): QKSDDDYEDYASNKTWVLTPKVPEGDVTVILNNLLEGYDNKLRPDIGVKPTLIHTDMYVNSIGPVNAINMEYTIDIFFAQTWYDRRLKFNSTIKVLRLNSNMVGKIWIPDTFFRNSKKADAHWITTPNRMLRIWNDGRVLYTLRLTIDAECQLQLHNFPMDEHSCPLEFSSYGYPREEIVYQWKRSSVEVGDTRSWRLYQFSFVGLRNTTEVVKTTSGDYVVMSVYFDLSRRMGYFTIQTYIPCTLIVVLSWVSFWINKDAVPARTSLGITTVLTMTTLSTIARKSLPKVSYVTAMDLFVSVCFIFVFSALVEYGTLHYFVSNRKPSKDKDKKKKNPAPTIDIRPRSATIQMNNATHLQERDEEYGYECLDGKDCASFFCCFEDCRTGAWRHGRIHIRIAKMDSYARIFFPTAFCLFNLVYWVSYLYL

For orientation: EC50 means the concentration at which the effect is half-maximal. Take `CCCCC/C=C\C/C=C\C/C=C\C/C=C\CCCC(=O)NCC(=O)O` [NA-glycine]: the concentration for a half-maximal effect (EC50) lay within 1 to 10 µM.

Values taken from publication PMC3775635, “Do N-arachidonyl-glycine (NA-glycine) and 2-arachidonoyl glycerol (2-AG) share mode of action and the binding site on the β2 subunit of GABAA receptors?” (PeerJ, 2013).
